# Patent US20250228856A1, “USE OF HEMATOPOIETIC CELL KINASE (HCK) INHIBITOR IN PREPARATION OF DRUG FOR TREATING PULMONARY FIBROSIS” (Institute of Basic Medical Sciences, CAMS, priority 2024, published 2025)
# Assays:
# Type in all cases: in vivo, C57BL/6J mice
# Hck = Hck transcription level in lung tissue of IPF mice (qPCR); conditions: BLM (2 U/kg) IPF mice; RK-20449 30 mg/kg i.p. once a day, 6 d a week, 3 weeks; FIG. 1
# Procedure: (§1) Male C57BL/6J mice (aged 8 weeks and weighing 25-30 g) were selected and housed in an SPF grade laboratory animal room, and the model of IPF was constructed by one-time intratracheal instillation of bleomycin (BLM); the mice were divided into four groups (n=9): • 1) PBS group+vehicle group: PBS (the volume consistent with the subsequent BLM infusion volume) was given by tracheal instillation; RK-20449 solvent PBS was injected intraperitoneally; • 2) PBS+RK-20449 group: intratracheal instillation of PBS (volume consistent with subsequent BLM infusion volume); intraperitoneal injection of RK-20449 (30 mg/kg, once a day, 6 d a week, for 3 weeks); • 3) BLM+vehicle group: BLM solution (2 U/kg) was given tracheal infusion; RK-20449 solvent PBS was injected intraperitoneally; and • 4) BLM+RK-20449 group: BLM solution (2 U/kg) was given tracheal infusion, and RK-20449 (30 mg/kg, once a day, 6 d a week, for 3 weeks) was injected intraperitoneally.
# (§2) All mice were sacrificed after 21 d of administration, and the corresponding samples were collected for detection.
# (§3) Lung tissue RNA of all mice was extracted; cDNA was obtained by using a reverse transcription kit (KR103, Tiangen Biotechnology, Beijing, China); qPCR was conducted by using a SYBR Green I Q-PCR Kit (TransGen Biotech, Beijing China); data collection and analysis were conducted by Bio-Rad IQ5 system.
# IPF mice [1] = test: Body weight and survival rate of IPF mice; conditions: BLM IPF mice, 30 mg/kg i.p., 3 weeks
# Procedure: as §1, §2
# The mice in each group were weighed, and the death of the mice was observed and counted.
# IPF mice [2] = test: Pulmonary function test in IPF mice; conditions: BLM IPF mice, 30 mg/kg i.p., 3 weeks
# Procedure: as §1, §2
# Anesthetized mice were fixed on an experimental table, and mouse lung function was detected by a pulmonary function testing system (DSI Buxco, USA). Before experiment, the mouse was anesthetized by intraperitoneal injection of 0.4 mL/100 g 2% pentobarbital, tracheotomy was performed, a trachea cannula was inserted, and a ventilator was connected. Next, FRC, PV, FV, and RC were automatically tested by a PET system. Indicators closely related to lung function changes in pulmonary fibrosis for statistical analysis, including lung volume indicators such as IC, and pulmonary ventilation function tests such as RI, Cdyn, and Cchord.
# IPF mice [3] = test: Transcription levels of inflammatory factors in lung tissue of IPF mice (qPCR); conditions: BLM IPF mice, 30 mg/kg i.p., 3 weeks
# Procedure: as §1, §2, §3
# IPF mice [4] = test: ELISA of inflammatory factors in BALF of IPF mice; conditions: BLM IPF mice, 30 mg/kg i.p., 3 weeks
# Procedure: as §1, §2
# Concentrations of inflammatory factors IL-1β and IL-6 in mouse BALF were detected by using ELISA kits.
# IPF mice [5] = test: Transcription levels of fibrosis factors in lung tissue of IPF mice (qPCR); conditions: BLM IPF mice, 30 mg/kg i.p., 3 weeks
# Procedure: as §1, §2, §3
# IPF mice [6] = test: HYP content and degree of lesions in lung tissue of IPF mice; conditions: BLM IPF mice, 30 mg/kg i.p., 3 weeks
# Procedure: as §1, §2
# 30 mg of mouse lung tissue was detected using an HYP kit (NBP2-59747, Novus Biologicals, Littleton, CO, USA).
smiles,measurement,setting,value
CN1CCN(C2CCC(n3cc(-c4ccc(Oc5ccccc5)cc4)c4c(N)ncnc43)CC2)CC1 (stereo not shown) [RK-20449],transcription level of Hck in the lung tissue,Hck,effectively inhibit
same,weight loss of IPF mice,IPF mice [1]; FIG. 2A,alleviated
same,survival rate,IPF mice [1]; FIG. 2B,increased to a certain extent
same,lung function: inspiratory resistance (RI),IPF mice [2]; FIG. 2C,improved significantly
same,lung function: dynamic compliance (Cdyn),IPF mice [2]; FIG. 2D,improved significantly
same,lung function: quasi-static compliance (Cchord),IPF mice [2]; FIG. 2E,improved significantly
same,lung function: inspiratory capacity (IC),IPF mice [2]; FIG. 2F,improved significantly
same,transcription level of Il-1β,IPF mice [3]; FIG. 3A,decreased
same,transcription level of Il-6,IPF mice [3]; FIG. 3B,decreased
same,transcription level of Tnf-α,IPF mice [3]; FIG. 3C,decreased
same,concentration of IL-1β in the alveolar lavage fluid,IPF mice [4]; FIG. 3D,decreased
same,concentration of IL-6 in the alveolar lavage fluid,IPF mice [4]; FIG. 3E,decreased
same,transcription level of Col-I,IPF mice [5]; FIG. 4A,decreased
same,transcription level of Fn-1,IPF mice [5]; FIG. 4B,decreased
same,degree of lesions,IPF mice [6],alleviated
same,hydroxyproline content in lung tissue,"IPF mice [6]; lung tissue, FIG. 4C",decreased
